# Data taken from ChEMBL document CHEMBL1135198, “Structure-activity relationships of non-imidazole H(3) receptor ligands. Part 1” (Bioorg Med Chem Lett, 2002).
# Experiments:
# Histamine H1 receptor = Histamine H1 receptor (Homo sapiens, UniProt P35367); experiment: Binding affinity for the human Histamine H1 Receptor
# Histamine H3 receptor = Histamine H3 receptor (Rattus norvegicus, UniProt Q9QYN8); experiment: Binding affinity for the rat cortical Histamine H3 receptor
# Histamine H2 receptor = Histamine H2 receptor (Homo sapiens, UniProt P25021); experiment: Binding affinity for the human Histamine H2 receptor
# Histamine H2 receptor, sequence (P25021 whole entry): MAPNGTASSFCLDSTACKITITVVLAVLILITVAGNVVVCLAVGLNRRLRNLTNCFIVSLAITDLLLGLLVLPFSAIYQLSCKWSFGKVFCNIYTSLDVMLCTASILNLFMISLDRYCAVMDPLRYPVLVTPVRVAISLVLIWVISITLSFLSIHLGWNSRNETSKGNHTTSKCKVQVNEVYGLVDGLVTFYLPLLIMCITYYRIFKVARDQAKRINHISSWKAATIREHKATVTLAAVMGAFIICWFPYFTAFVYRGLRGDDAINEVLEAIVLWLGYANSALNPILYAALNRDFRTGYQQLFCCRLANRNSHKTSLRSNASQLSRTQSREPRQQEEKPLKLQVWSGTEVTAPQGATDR
# Histamine H1 receptor, sequence (P35367 whole entry): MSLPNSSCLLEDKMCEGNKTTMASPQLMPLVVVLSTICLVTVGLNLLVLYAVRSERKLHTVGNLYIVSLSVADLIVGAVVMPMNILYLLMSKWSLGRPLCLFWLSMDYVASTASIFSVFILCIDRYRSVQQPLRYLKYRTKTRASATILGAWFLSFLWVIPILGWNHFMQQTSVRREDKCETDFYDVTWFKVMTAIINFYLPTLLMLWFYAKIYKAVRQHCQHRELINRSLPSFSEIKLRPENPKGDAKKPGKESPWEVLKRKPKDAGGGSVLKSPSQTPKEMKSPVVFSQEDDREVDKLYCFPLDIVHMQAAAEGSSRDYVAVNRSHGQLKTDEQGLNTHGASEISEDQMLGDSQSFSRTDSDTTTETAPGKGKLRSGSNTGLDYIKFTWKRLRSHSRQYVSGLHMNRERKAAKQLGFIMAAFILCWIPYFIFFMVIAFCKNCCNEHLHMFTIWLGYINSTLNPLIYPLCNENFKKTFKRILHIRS
# Histamine H3 receptor, sequence (Q9QYN8 whole entry): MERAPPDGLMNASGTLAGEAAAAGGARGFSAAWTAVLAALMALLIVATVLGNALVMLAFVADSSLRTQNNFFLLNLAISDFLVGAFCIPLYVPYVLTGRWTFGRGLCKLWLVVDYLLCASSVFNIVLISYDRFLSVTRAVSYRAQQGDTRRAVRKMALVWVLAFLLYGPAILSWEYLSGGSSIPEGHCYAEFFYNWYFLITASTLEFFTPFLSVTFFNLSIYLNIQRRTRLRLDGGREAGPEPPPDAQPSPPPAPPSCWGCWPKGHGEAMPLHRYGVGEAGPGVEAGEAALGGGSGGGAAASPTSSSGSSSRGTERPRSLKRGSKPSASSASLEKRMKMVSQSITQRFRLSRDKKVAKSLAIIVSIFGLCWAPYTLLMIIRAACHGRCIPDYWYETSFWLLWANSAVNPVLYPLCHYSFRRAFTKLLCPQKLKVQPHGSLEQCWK
SMILES,Ki (Histamine H1 receptor),Ki (Histamine H3 receptor),Ki (Histamine H2 receptor)
CCOC(=O)N1CCN(CCCOc2ccc(C(=O)c3ccc(SC)cc3)cc2)CC1,447 nM,58.9 nM,6170 nM
C=C(C)C(=O)c1ccc(OCCCN2CCN(C(=O)OCC)CC2)cc1,977 nM,55 nM,22400 nM
CCCCCC(=O)c1ccc(OCCCN2CCN(C(=O)c3ccncc3)CC2)cc1,479 nM,6.31 nM,22400 nM
CCCCCC(=O)c1ccc(OCCCN2CCN(C(=O)c3sccc3Cl)CC2)cc1,79.4 nM,29.5 nM,19500 nM
CCOC(=O)N1CCN(CCCOc2ccc(C(=O)/C=C/c3ccc(OC)cc3)cc2)CC1,617 nM,7.24 nM,6760 nM
CCCCCC(=O)c1ccc(OCCCN2CCN(C(=O)C(C)(C)O)CC2)cc1,21400 nM,57.5 nM,24500 nM
CCCCCC(=O)c1ccc(OCCCN2CCN(C(=O)CC)CC2)cc1,1910 nM,3.16 nM,31600 nM
CCCCCC(=O)c1ccc(OCCCN2CCN(C(=O)c3ccccc3)CC2)cc1,288 nM,36.3 nM,12300 nM
CCCCCC(=O)c1ccc(OCCCN2CCNCC2)cc1,6030 nM,26.9 nM,14500 nM
CCCCCC(=O)c1ccc(OCCCN2CCN(C(=O)C3CC3)CC2)cc1,1780 nM,2.14 nM,31600 nM
CCOC(=O)N1CCN(CCCOc2ccc(C(=O)c3cccc(F)c3F)cc2)CC1,1020 nM,25.1 nM,17400 nM
CCCC(=O)c1ccc(OCCCN2CCN(C(=O)OCC)CC2)cc1,741 nM,3.63 nM,22400 nM
CCOC(=O)N1CCN(CCCOc2ccc(C(=O)C=C(C)C)cc2)CC1,355 nM,38.9 nM,21900 nM
CCCCCC(=O)c1ccc(OCCCN2CCN(C(=O)Cc3ccccc3)CC2)cc1,56.2 nM,10 nM,8910 nM
CCCCCC(=O)c1ccc(OCCCN2CCN(C(=O)c3cccnc3)CC2)cc1,724 nM,20.4 nM,60300 nM
CCOC(=O)N1CCN(CCCOc2ccc(C(=O)c3ccc(OC)cc3)cc2)CC1,813 nM,39.8 nM,8320 nM
CCCCCC(=O)c1ccc(OCCCN2CCN(S(C)(=O)=O)CC2)cc1,26300 nM,21.4 nM,83200 nM
CCCCCC(=O)c1ccc(OCCCN2CCN(CCC)CC2)cc1,3390 nM,27.5 nM,27500 nM
CCOC(=O)N1CCN(CCCOc2ccc(C(=O)c3ccc(F)cc3)cc2)CC1,209 nM,67.6 nM,42700 nM
CCOC(=O)N1CCN(CCCOc2ccc(C(=O)/C=C/c3cccnc3)cc2)CC1,427 nM,6.31 nM,25100 nM

SMILES,Ki (Histamine H1 receptor),Ki (Histamine H3 receptor),Ki (Histamine H2 receptor)
CCCCCCCC(=O)c1ccc(OCCCN2CCN(C(=O)OCC)CC2)cc1,562 nM,3.72 nM,2140 nM
CCCCCC(=O)c1ccc(OCCCN2CCN(CC(C)C)CC2)cc1,457 nM,9.33 nM,9550 nM
CCCCCC(=O)c1ccc(OCCCN2CCN(Cc3nccs3)CC2)cc1,60.3 nM,16.6 nM,7080 nM
CCCCCC(=O)c1ccc(OCCCN2CCN(C(=O)c3ccc(C)s3)CC2)cc1,97.7 nM,15.8 nM,8130 nM
CCCCCC(=O)c1ccc(OCCCN2CCN(C(=O)c3cnco3)CC2)cc1,4270 nM,44.7 nM,27500 nM
CCCCCC(=O)c1ccc(OCCCN2CCN(C(=O)NCC)CC2)cc1,1580 nM,21.4 nM,23400 nM
CCOC(=O)N1CCN(CCCOc2ccc(C(=O)C3CCCCC3)cc2)CC1,603 nM,25.1 nM,7940 nM
CCOC(=O)N1CCN(CCCOc2ccc(C(=O)CC(C)C)cc2)CC1,933 nM,7.24 nM,69200 nM
CCCCCC(=O)c1ccc(OCCCN2CCN(C(=O)c3occc3C)CC2)cc1,105 nM,8.51 nM,12900 nM
CCOC(=O)N1CCN(CCCOc2ccc(C(=O)CC)cc2)CC1,1660 nM,5.37 nM,56200 nM
CCCCCC(=O)c1ccc(OCCCN2CCN(C(=O)c3cnccn3)CC2)cc1,2040 nM,18.2 nM,46800 nM
CCCCCC(=O)c1ccc(OCCCN2CCN(C(=O)c3ccco3)CC2)cc1,398 nM,10.5 nM,20000 nM
CCCCCC(=O)c1ccc(OCCCN2CCN(C(=O)C(C)C)CC2)cc1,3980 nM,–,29500 nM
CCCCCC(=O)c1ccc(OCCCN2CCN(C(=O)c3cccs3)CC2)cc1,74.1 nM,16.2 nM,14800 nM
CCCCCC(=O)c1ccc(OCCCN2CCN(C(=O)OCC)CC2)cc1,275 nM,1.38 nM,12600 nM
CCOC(=O)N1CCN(CCCOc2ccc(C(C)=O)cc2)CC1,2240 nM,5.01 nM,39800 nM
CCOC(=O)N1CCN(CCCOc2ccc(C(=O)C3CC3)cc2)CC1,1410 nM,4.68 nM,79400 nM
CCCCCCCCC(=O)c1ccc(OCCCN2CCN(C(=O)OCC)CC2)cc1,501 nM,7.94 nM,2690 nM
CCCCCC(=O)c1ccc(OCCCN2CCN(C(=O)c3ccccn3)CC2)cc1,417 nM,52.5 nM,18600 nM
CCCCCC(=O)c1ccc(OCCCN2CCN(S(=O)(=O)C(C)C)CC2)cc1,11200 nM,12.6 nM,20900 nM

SMILES,Ki (Histamine H1 receptor),Ki (Histamine H3 receptor),Ki (Histamine H2 receptor)
CCCCCC(=O)c1ccc(OCCCN2CCN(S(=O)(=O)c3ccc(C#N)cc3)CC2)cc1,13500 nM,37.2 nM,12300 nM
CCOC(=O)N1CCN(CCCOc2ccc(C(=O)c3cccc(C)c3)cc2)CC1,380 nM,288 nM,3720 nM
CCCCCC(=O)c1ccc(OCCCN2CCN(C(=O)C3CCC3)CC2)cc1,355 nM,3.16 nM,10200 nM
CCCCCC(=O)c1ccc(OCCCN2CCN(C(=O)CSCC)CC2)cc1,1100 nM,11 nM,22900 nM
CCOC(=O)N1CCN(CCCOc2ccc(C(=O)c3ccc(C(C)(C)C)cc3)cc2)CC1,562 nM,13.2 nM,1550 nM
CCCCCC(=O)c1ccc(OCCCN2CCN(CC3CC3)CC2)cc1,2240 nM,15.8 nM,18600 nM
CCCCCC(=O)c1ccc(OCCCN2CCN(C(=O)OCCCC)CC2)cc1,575 nM,20.4 nM,1860 nM
CCCCCC(=O)c1ccc(OCCCN2CCN(CCCC)CC2)cc1,661 nM,13.5 nM,7590 nM
CCCCCC(=O)c1ccc(OCCCN2CCN(C(=O)OC)CC2)cc1,1070 nM,3.02 nM,12000 nM
CCCCCC(=O)c1ccc(OCCCN2CCN(C(=O)CCC)CC2)cc1,871 nM,6.46 nM,22900 nM
CCCCCC(=O)c1ccc(OCCCC2CCNCC2)cc1,–,58900 nM,–
CCCCCC(=O)c1ccc(OCCCN2CCCCC2)cc1,–,63.1 nM,–
CCCCCC(=O)c1ccc(OCCCN2CCN(C(=O)N3CCCC3)CC2)cc1,1050 nM,7.41 nM,14800 nM
CCCCCC(=O)c1ccc(OCCCN2CCN(C(=O)NC(C)C)CC2)cc1,1200 nM,9.55 nM,11200 nM
CCCCCC(=O)c1ccc(OCCCN2CCN(C(=O)OCC(C)C)CC2)cc1,275 nM,10 nM,3720 nM
CCOC(=O)N1CCN(CCCOc2ccc(C(=O)Cc3ccccc3)cc2)CC1,933 nM,69.2 nM,12600 nM
CCCCCC(=O)c1ccc(OCCCN2CCN(C(=O)c3cccn3C)CC2)cc1,56.2 nM,4.07 nM,11700 nM
CCCCCC(=O)c1ccc(OCCCN2CCN(C(=O)N3CCOCC3)CC2)cc1,4170 nM,5.89 nM,17800 nM
